Reference: patent US20160129044A1, “USE OF MESOTHELIAL CELLS IN TISSUE BIOENGINEERING AND ARTIFICIAL TISSUES” (FUNDACION PÚBLICA ANDALUZA PROGRESO Y SALUD, priority 2013, published 2016)

System: adipose tissue mesothelial cells (ATMCs)
Experiment: Epithelial-to-mesenchymal transition (EMT) of cultured adipose tissue mesothelial cells: morphology, α-SMA/F-actin immunofluorescence, Western blot
Assay type: cell-based, mouse
Details: hydrocortisone 1 μg/ml; ATMCs cultured 3 days; basal media or 20 ng/ml EGF
Method: A total number of 3.5×10^5 ATMCs was seeded in each well of a 6 wells culture dishes (140685, Nunclon™ Δ Surface) into 1.5 ml of a culture media that we termed MRPM (Mesothelial Retaining Phenotype Media). […] Dev Dyn 236: 2973-2979) which are components of the fetal bovine serum (FBS). […] Concentration in viable ATMCs was assessed with a Neubaeur haemocytometer by using the trypan blue exclusion test and was adjusted to a final concentration of 1.6×10^6 cells/ml. […] The mesothelial phenotype of ATMCs cultured for 48 hours in MRPM into hydrophilic p-Dish as well as mesothelialized HALC cultures was analyzed with immunofluorescence. […] Fluorescence images were captured with an inverted fluorescence microscope Olympus IX71 as described above. Quantification of α-SMA immunofluorescence expression was performed with the use of the Meta Imaging Software MetaMorph Offline version 7.5.1.0 (MDS Analytical technologies, USA). For each immunofluorescence image, were calculated the average values of specific Hoechst 33342 and Alexa 488 nm fluorescence emitted by the cells. Specific fluorescence was obtained after eliminating the average values of background fluorescence emitted by 3 areas lacking cells. Hoechst 33342 and Alexa 488 nm fluorescence were further divided between each other to obtain a relative index of marker expression (arbitrary units). […]

## C[C@]12CCC(=O)C=C1CC[C@@H]1[C@@H]2[C@@H](O)C[C@@]2(C)[C@H]1CC[C@]2(O)C(=O)CO [Hydrocortisone, hydrocortisone]
  Effect on Serum- and EGF-induced EMT of ATMCs (α-SMA expression, immunofluorescence and Western blot): inhibits Serum- and EGF-induced EMT
